Like-named read-outs stand apart in the source and are kept apart here.
What was measured:
[1] = Stability in human plasma; assay type: in vitro ADME; settings: 37° C.
Experimental: 1 mg of the test compound was solved in 0.5 ml acetonitrile/dimethylsulfoxide 1:1. For complete dissolution the HPLC vial was shaken and sonicated. While vortexing 20 μl of this solution were added to 1 ml 37° C. warm plasma. After 0.17, 0.5, 1, 1.5, 2 and 4 hours the enzymatic reaction was stopped by adding 100 μl of the compound plasma solution to a vial containing 300 μl acetonitrile/buffer pH3 (80:20) at RT. The mixture was centrifuged at 5000 rpm for 10 minutes. The supernatant was analyzed by HPLC to determine the amount of the test compound and up to two byproducts. t(0) values result from a processed sample immediately taken after vortexing with plasma at RT. The peak areas (in percentage) were used for quantification.

NCI-H1975 = test: Cytotoxicity in vitro against NCI-H1975; assay type: cell-based
Source text: (§1) The cytotoxic activity of 7-Ethyl camptothecin is not negatively affected when tumor cells NCI-H1975 was transfected with drug transporters p-Glycoprotein (P-gp) and breast cancer resistant protein (BCRP) which is in strong contrast to SN38.

P-gp (ABCB1) = P-gp (ABCB1) (Homo sapiens, UniProt P08183); test: in vitro
Chain of P-gp (ABCB1) (P08183 whole entry): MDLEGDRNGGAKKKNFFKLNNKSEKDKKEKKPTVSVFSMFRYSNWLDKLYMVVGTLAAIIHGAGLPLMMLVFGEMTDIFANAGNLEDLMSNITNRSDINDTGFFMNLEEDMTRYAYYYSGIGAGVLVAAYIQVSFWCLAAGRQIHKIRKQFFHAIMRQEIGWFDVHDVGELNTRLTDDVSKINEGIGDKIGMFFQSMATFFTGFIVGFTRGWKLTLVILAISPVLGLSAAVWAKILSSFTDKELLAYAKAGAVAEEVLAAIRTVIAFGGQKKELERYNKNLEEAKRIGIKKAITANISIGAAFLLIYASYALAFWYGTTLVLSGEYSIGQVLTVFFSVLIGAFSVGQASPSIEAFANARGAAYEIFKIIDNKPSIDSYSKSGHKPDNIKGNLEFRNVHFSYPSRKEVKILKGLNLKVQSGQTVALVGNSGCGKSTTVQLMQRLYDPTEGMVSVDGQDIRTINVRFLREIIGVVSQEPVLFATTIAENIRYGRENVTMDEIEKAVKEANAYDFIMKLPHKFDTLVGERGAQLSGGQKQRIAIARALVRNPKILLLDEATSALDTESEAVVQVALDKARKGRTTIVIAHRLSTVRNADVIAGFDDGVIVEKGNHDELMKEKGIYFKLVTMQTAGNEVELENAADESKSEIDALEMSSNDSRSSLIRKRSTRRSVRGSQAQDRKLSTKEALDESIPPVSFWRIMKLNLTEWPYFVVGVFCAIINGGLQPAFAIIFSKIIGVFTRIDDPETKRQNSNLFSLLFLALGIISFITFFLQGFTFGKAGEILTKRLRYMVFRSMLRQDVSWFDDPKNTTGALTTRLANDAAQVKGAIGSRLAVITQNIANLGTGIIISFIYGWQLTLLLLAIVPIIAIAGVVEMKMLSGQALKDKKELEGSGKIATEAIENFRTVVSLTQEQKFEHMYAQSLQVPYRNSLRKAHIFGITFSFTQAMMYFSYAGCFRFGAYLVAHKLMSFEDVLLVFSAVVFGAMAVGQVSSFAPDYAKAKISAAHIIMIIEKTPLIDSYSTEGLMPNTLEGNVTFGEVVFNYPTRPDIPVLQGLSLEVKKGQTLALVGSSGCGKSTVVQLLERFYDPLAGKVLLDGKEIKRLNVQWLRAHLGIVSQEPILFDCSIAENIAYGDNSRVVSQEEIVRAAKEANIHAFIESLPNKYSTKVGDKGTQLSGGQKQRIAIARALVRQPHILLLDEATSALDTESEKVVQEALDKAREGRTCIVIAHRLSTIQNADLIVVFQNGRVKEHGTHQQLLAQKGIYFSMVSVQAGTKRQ
Experimental: Many tumor cells express transporter proteins for drugs, and this frequently accompanies the development of resistance towards cytostatics.
The substrate properties of a substance for P-gp (ABCB1) were determined by means of a flux assay using LLC-PK1 cells which overexpress P-gp (L-MDR1 cells) [A. H. Schinkel et al., J. Clin. Invest. 96. 1698-1705 (1995)]. For this purpose. the LLC-PK1 cells or L-MDR1 cells were cultured on 96-well filter plates for 3-4 days. For determination of the permeation, the respective test substance, alone or in the presence of an inhibitor (such as ivermectin or verapamil, for example), was applied in a HEPES buffer to the cells either apically (A) or basally (B) and incubated for 2 hours. After ([…] and after 2 hours, samples were taken from the cis and trans compartments. The samples were separated by HPLC using reverse phase columns. The HPLC system was coupled via a Turbo Ion Spray Interface to a Triple Quadropol mass spectrometer API 3000 (Applied Biosystems Applera, Darmstadt, Germany). The permeability was evaluated on the basis of a Papp value, which was calculated using the formula published by Schwab et al. [D. Schwab et al. . . . J. Med. Chem. 46, 1716-1725 (2003)]. A substance was classified as P-gp substrate when the efflux ratio of Papp (B-A) to Papp (A-B) was >2.

Caco-2 cells = test: Caco-2 flux assay for cellular permeability; assay type: in vitro ADME
Experimental: (§2) The cell permeability of a substance can be investigated by means of in vitro testing in a flux assay using Caco-2 cells [M. D. Troutman and D. R. Thakker, Pharm. Res. 20 (8), 1210-1224 (2003)]. For this purpose. the cells were cultured for 15-16 days on 24-well filter plates. […] The samples were separated by HPLC (Agilent 1200. Böblingen. Germany) using reverse phase columns. […] 1716-1725 (2003)]. A substance was classified as actively transported when the ratio of Papp (B-A) to Papp (A-B) (efflux ratio) was >2 or <0.5.

NCI-H1975-P-gp = test: Cytotoxicity in vitro against NCI-H1975 transfected with P-gp; assay type: cell-based
Source text: as §1

NCI-H1975-BCRP = test: Cytotoxicity in vitro against NCI-H1975 transfected with BCRP; assay type: cell-based
Source text: as §1

[2] = Caco-2 flux assay for cellular permeability; assay type: in vitro ADME; settings: human
Experimental: as §2

P-gp = test: Cytotoxicity in vitro against NCI-H1975 transfected with P-gp; assay type: cell-based; settings: human
Source text: as §1

[3] = Pharmacokinetics: tumor and plasma levels in 786-O tumor bearing mice; assay type: in vivo, NMRI nu/nu mice; settings: for Tumor/Plasma enrichment factor (ratio/ratio): relative to direct administration of 7-ethyl camptothecin
Experimental: (§3) Tumor and plasma samples were collected at different time points and the levels of intact conjugate and of the toxophore 7-ethyl-camptothecin cleaved from the conjugate were determined.
For comparison, 1 mg/kg of 7-ethyl camptothecin was dissolved in a mixture of 5% aqueous dextrose/solutol/DMSO 85/10/5 and administered iv to female. 786-O tumor bearing NMRI nu/nu mice. Again tumor and plasma samples were collected at different time points and the levels of 7-ethyl-camptothecin were determined.
as §3

BCRP = test: Cytotoxicity in vitro against NCI-H1975 transfected with BCRP; assay type: cell-based; settings: human
Source text: as §1

HT29 cell line = test: Cytotoxicity in vitro (MTT) in the presence and absence of elastase, HT29; assay type: cell-based; settings: 72 h
Experimental: (§4) Cultivation of cells was performed according to standard procedures with the media recommended by the provider. The cells in a total volume of 100 μL were seeded in a 96-well plate with white bottom (#3610). After a 24 h incubation period at 37° C. and 5% CO2, the medium was changed by adding 90 μL fresh medium. The treatment starts by adding the test compound to the cells in 10 μl of culture medium. Concentrations from 10^−5 M to 10^−13 M in triplicates were chosen followed by an incubation at 37° C. and 5% carbon dioxide. One set of samples were only treated with the test compound whereas to an otherwise identically treated second set of samples also 10 nM elastase was pipetted. After 72 h. the proliferation is detected using the MTT assay (ATCC). At the end of the incubation period the MTT reagent is added to all samples for 4 h, followed by lysis of the cells overnight by addition of the detergent. The dye formed was detected at 570 nm. The proliferation of cells which were not treated with test substance but were otherwise identically treated was defined as the 100% value. (FIG. 1 and table 4).

αvβ3 receptor = molecular target: T1, αvβ3 receptor (Homo sapiens, UniProt P05106+P06756); test: αvβ3 binding test (echistatin SPA)
T1 construct: αvβ3 from human A375 cells was purified analogously to a procedure described by Wong et al; endogenous in cells; host or cells: human A375 cells (receptor purified from the cells)
T1 sequence (P06756 31-889 limits assumed): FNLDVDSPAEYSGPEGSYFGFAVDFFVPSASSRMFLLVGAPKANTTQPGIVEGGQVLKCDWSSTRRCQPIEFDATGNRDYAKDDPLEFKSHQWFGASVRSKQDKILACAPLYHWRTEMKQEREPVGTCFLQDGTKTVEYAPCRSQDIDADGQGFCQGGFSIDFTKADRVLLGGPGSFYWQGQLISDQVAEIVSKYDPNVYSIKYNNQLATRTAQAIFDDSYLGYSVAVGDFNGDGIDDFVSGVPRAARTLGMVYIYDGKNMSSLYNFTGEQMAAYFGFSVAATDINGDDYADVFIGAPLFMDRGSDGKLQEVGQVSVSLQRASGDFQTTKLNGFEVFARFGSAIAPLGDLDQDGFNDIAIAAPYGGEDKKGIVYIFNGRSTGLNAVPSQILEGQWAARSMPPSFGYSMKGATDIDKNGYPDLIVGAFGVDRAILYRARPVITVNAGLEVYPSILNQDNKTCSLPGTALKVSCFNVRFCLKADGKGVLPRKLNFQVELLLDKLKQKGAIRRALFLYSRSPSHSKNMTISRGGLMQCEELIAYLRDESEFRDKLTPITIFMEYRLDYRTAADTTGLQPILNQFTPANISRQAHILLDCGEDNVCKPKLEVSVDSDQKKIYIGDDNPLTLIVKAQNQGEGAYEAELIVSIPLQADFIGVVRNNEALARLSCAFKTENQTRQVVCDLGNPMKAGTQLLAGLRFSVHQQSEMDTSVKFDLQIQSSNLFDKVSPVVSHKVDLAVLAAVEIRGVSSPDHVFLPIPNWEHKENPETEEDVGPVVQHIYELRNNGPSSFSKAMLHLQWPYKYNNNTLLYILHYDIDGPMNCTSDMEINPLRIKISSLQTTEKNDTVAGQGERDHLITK
T1 sequence (P06756 891-1048 partner limits assumed): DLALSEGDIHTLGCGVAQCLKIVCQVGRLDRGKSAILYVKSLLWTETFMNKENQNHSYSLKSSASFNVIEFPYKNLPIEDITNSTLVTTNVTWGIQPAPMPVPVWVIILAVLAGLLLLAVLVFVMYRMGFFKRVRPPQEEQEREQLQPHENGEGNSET
T1 sequence (P05106 27-788): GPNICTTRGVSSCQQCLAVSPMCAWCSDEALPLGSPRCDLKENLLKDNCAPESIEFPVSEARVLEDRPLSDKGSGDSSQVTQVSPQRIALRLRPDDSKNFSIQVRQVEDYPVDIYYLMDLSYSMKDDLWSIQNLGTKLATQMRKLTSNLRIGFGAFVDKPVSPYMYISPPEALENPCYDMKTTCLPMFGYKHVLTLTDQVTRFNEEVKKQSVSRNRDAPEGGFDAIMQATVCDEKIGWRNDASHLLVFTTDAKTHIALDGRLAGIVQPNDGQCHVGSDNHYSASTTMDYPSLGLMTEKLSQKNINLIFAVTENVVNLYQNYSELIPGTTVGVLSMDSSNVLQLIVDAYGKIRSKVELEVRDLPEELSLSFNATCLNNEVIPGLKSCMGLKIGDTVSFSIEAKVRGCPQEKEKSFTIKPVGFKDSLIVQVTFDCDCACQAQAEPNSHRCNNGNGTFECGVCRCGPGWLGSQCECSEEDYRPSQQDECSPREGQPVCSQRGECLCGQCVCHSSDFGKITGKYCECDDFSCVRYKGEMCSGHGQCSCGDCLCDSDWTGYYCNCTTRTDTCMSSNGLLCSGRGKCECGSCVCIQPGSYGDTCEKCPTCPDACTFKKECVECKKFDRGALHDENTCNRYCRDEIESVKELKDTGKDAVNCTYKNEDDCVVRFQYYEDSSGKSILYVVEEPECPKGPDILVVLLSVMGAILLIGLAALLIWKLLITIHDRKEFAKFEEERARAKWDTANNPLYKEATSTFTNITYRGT
Experimental: αvβ3 from human A375 cells was purified analogously to a procedure described by Wong et al. in Molecular Pharmacology 50, 529-537 (1996). In each case, 10 μL of αvβ3 (5 ng) in TBS PH 7.6, 2 mM CaCl2. 1 mM MgCl2. 1% n-octylglucopyranoside (Sigma): 10 μL of test substance in TBS pH 7.6. 0.1% DMSO and 45 μL of TBS pH 7.6. 2 mM CaCl2, 1 mM MgCl2, 1 mM MnCl2 were incubated at room temperature for 1 h. In each case, 25 μL of WGA SPA beads (Amersham, 4 mg/ml) and 10 μL of echistatin (0.1 μCi, Amersham, chloramine-T labelled) were then added. After 16 h at room temperature, the samples were measured in a scintillation measuring apparatus (Wallac 1450).

786-O cell line = test: Cytotoxicity in vitro (MTT) in the presence and absence of elastase, 786-O; assay type: cell-based; settings: 72 h, MTT
Experimental: as §4

[4] = Caco-2, Papp (B-A) to Papp (A-B)

For `CC[C@@]1(O)C(=O)OCc2c1cc1n(c2=O)Cc2cc3ccccc3nc2-1` [camptothecin], the “extent of degradation in human plasma” value ([1]; 4 hours) was “about 50%”.
For `CCc1c2c(nc3ccc(O)cc13)-c1cc3c(c(=O)n1C2)COC(=O)[C@]3(O)CC` [SN38], the IC50 (NCI-H1975) was 45 nM, the “permeability Papp A->B” value (P-gp (ABCB1); L-MDR1 cells (LLC-PK1 overexpressing P-gp)) was 1 ×10⁻⁶ cm/s and the efflux ratio (P-gp (ABCB1); L-MDR1 cells, Papp (B-A) to Papp (A-B)) was 16. For the same compound, the “permeability Papp A->B” value (Caco-2 cells; Caco-2, 2 hours incubation) was 0.8 ×10⁻⁶ cm/s, the efflux ratio (Caco-2 cells; [4]) was 36 and the efflux ratio (Caco-2 cells; Caco-2, new data for SN38) was 9. For the same compound, the “permeability Papp A->B” value (Caco-2 cells; Caco-2, new data for SN38) was 2 ×10⁻⁶ cm/s, the IC50 (NCI-H1975-P-gp) was 141 nM and the IC50 (NCI-H1975-BCRP) was 512 nM.
In the case of `CCc1c2c(nc3ccccc13)-c1cc3c(c(=O)n1C2)COC(=O)[C@]3(O)CC` [7-Ethyl-camptothecin, (4S)-4,11-diethyl-4-hydroxy-1H-pyrano[3′,4′:6,7]indolizino[1,2-b]quinoline-3,14(4 H,12H)-dione], the IC50 (NCI-H1975; Homo sapiens, NCI-H1975) is reported as 19 nM, the Papp A→B at 2 h (P-gp (ABCB1); pig, LLC-PK1) is reported as 19.6 ×10⁻⁶ cm/s and the efflux ratio at 2 h (P-gp (ABCB1); pig, LLC-PK1) is reported as 0.6. The Papp A→B at 2 h ([2]; Caco-2, 2 hours incubation) was 17.1 ×10⁻⁶ cm/s, the efflux ratio at 2 h [2, 4] was 1 and the IC50 (P-gp) was 34 nM. The Kp ([3]; mouse, tumor and plasma, 1 mg/kg, iv, female 786-O tumor bearing NMRI nu/nu mice, read-out: Tumor/Plasma ratio of 7-ethyl camptothecin) was 0.6, the “Tumor/Plasma enrichment factor (ratio/ratio)” value [3] was 1 and the “stable in human plasma for” value [1] was “at least 4 hours”. The IC50 (BCRP) was 27 nM.
With `CCCNC(=O)Nc1cccc(S(=O)(=O)Nc2cccc([C@H](CC(=O)[O-])NC(=O)Nc3ccc(NC(=O)NCCOCCOCCOCCC(=O)N[C@@H](CC(=O)[O-])C(=O)N4CCC[C@H]4C(=O)N[C@H](C(=O)O[C@]4(CC)C(=O)OCc5c4cc4n(c5=O)Cc5c-4nc4ccccc4c5CC)C(C)C)cc3)c2)c1.[Na+].[Na+]` [Example 2, disodium (4S)-4,11-diethyl-3,14-dioxo-3,4,12,14-tetrahydro-1H-pyrano[3′,4′: 6,7]indolizino [1,2-b]quinolin-4-yl 1-{(2S)-2-(carboxylatomethyl)-17-[4-({[(1S)-2-carboxylato-1-{3-[({3-[(propyl-carbamoyl)amino]phenyl}sulfonyl)amino]phenyl}ethyl]carbamoyl}amino)anilino]-4,17-dioxo-7,10,13-trioxa-3,16-diazaheptadecan-1-oyl}-L-prolyl-L-valinate] the IC50 (HT29 cell line; 10 nM elastase, read-out: HT29 cell line IC50 w elastase) was 32 nM, the IC50 (HT29 cell line; without elastase, read-out: HT29 cell line IC50 w/o elastase) was over 500 nM and the IC50 (αvβ3 receptor) was 700 nM. For the same compound, the IC50 (786-O cell line; 10 nM elastase, read-out: 786-O cell line IC50 w elastase) was 0.17 nM, the IC50 (786-O cell line; without elastase, read-out: 786-O cell line IC50 w/o elastase) was 268 nM and the “Tumor/Plasma enrichment factor (ratio/ratio)” value [3] was 2.
